assay: RP, Thermo Scientific Acclaim RSLC 120 C18, 100 × 2.1 mm, 2.2 µm, 30 °C, 0.2 mL/min, estimated dead time 1.1 min; A: 90% water + 10% methanol + 0.01% formic acid + 5 mM ammonium formate, pH 3.61; B: methanol + 0.01% formic acid + 5 mM ammonium formate, pH 3.61; gradient (min/%B) 0/1 1/1 2/39 13/99.9 15/99.9 15.1/1 20.1/1; conditions: stereoisomer not certain

First: NC(N)=NC(N)=NCCc1ccccc1 [Phenformin]
Second: NC(=O)c1ccccc1C(=O)O [Phthalamic acid]
The LC retention time of the first is 1.5-fold higher: 4.38 min for the first, 2.87 min for the second.

O=C(O)COC(=O)Cc1ccccc1Nc1c(Cl)cccc1Cl [Aceclofenac] and CC(C(=O)O)c1cccc(C(=O)c2ccccc2)c1 (stereo not drawn) [Ketoprofen] are within 1.5-fold of each other in LC retention time: 9.2 min for the first, 8.53 min for the second.

O=S(=O)(c1ccc(Cl)cc1)c1cc(Cl)c(Cl)cc1Cl [Tetradifon] and O=S(=O)(Oc1ccc(Cl)cc1)c1ccccc1 [Fenson] are within 1.5-fold of each other in LC retention time: 12.2 min for the first, 10.1 min for the second.

Compared with NCC1(CC(=O)O)CCCCC1 [Gabapentin], NCC1CCC(C(=O)O)CC1 (stereo not drawn) [Tranexamic acid] is 2.1-fold lower in LC retention time: 3.78 min for the first, 1.79 min for the second.

CCCCC(C#N)(Cn1cncn1)c1ccc(Cl)cc1 (stereo not drawn) [Myclobutanil] and CC(C)(Oc1ccc(C(=O)c2ccc(Cl)cc2)cc1)C(=O)O [Fenofibric acid] are within 1.5-fold of each other in LC retention time: 9.74 min for the first, 9.68 min for the second.

N=C1CN(O)C(c2ccccc2)=c2cc(Cl)ccc2=N1 [Chlordiazepoxide-Desmethyl] and O=C1Nc2ccc(Cl)cc2C(c2ccccc2)=NC1O (stereo not drawn) [Oxazepam] are within 1.5-fold of each other in LC retention time: 8.27 min for the first, 8.43 min for the second.

First: COC(=O)C(NC(=O)c1nn(CCCCCF)c2ccccc12)C(C)(C)C (stereo not drawn) [ADB-5F]
Second: CCN(CC)CC(=O)Nc1c(C)cccc1C(=O)OC [Tolycaine]
The LC retention time of the first is 2.4-fold higher: 11 min for the first, 4.59 min for the second.

CCC(c1ccccc1)c1c(O)c2ccccc2oc1=O (stereo not drawn) [Phenprocoumon] and CNCCC(Oc1cccc2ccccc12)c1cccs1 (stereo not drawn) [Duloxetine] are within 1.5-fold of each other in LC retention time: 9.05 min for the first, 8.11 min for the second.

CC(=O)OC1C=CC2C3Cc4ccc(O)c5c4C2(CCN3C)C1O5 (stereo not drawn) [MAM (6-O-Monoacetylmorphine)] and CC(=O)c1cc2cccc(OCC(O)CNC(C)C)c2o1 (stereo not drawn) [Befunolol] are within 1.5-fold of each other in LC retention time: 3.75 min for the first, 4.93 min for the second.

CCOc1cc(OP(=S)(OC)OC)nc(CC)n1 [Etrimfos] and CCOP(=S)(OCC)Oc1cc(C)nc(N(CC)CC)n1 [Pirimiphos-ethyl] are within 1.5-fold of each other in LC retention time: 11 min for the first, 12.3 min for the second.

O=S(=O)(O)c1ccc2nc(-c3ccccc3)[nH]c2c1 [Phenylbenzimidazole sulfonic acid] and O=C(O)c1ccccc1C(=O)Nc1ccc(S(=O)(=O)Nc2nccs2)cc1 [Sulfathiazole-Phthalyl] are within 1.5-fold of each other in LC retention time: 4.63 min for the first, 4.66 min for the second.

CNC(C)Cc1cccs1 (stereo not drawn) [Methiopropamine] and Cc1cc(NS(=O)(=O)c2ccc(N)cc2)on1 [Sulfamethoxazole (Impurity F)] are within 1.5-fold of each other in LC retention time: 3.69 min for the first, 4.39 min for the second.

CON(C)C(=O)Nc1ccc(Cl)c(Cl)c1 [Linuron] and C#CC(C)OC(=O)Nc1cccc(Cl)c1 (stereo not drawn) [Chlorbufam] are within 1.5-fold of each other in LC retention time: 9.3 min for the first, 9.27 min for the second.

COC(=O)C1=C(C#N)NC(C)=C(C(=O)OC(C)C)C1c1cccc([N+](=O)[O-])c1 (stereo not drawn) [Nilvadipine] and CCOC(=O)COC(=O)c1cc(Oc2ccc(C(F)(F)F)cc2Cl)ccc1[N+](=O)[O-] [Fluoroglycofen-ethyl] are within 1.5-fold of each other in LC retention time: 10.3 min for the first, 11.7 min for the second.

First: Cc1oc(C)c(C(=O)Nc2ccccc2)c1C [Methfuroxam]
Second: CC(=O)Nc1c(C)n(C)n(-c2ccccc2)c1=O [Antipyrine- 4-Acetamido]
The LC retention time of the first is 2.2-fold higher: 8.79 min for the first, 3.94 min for the second.

Compared with CCC1(C2OC(C3OC(O)(CO)C(C)CC3C)CC2C)CCC(C2(C)CCC3(CC(O)C(C)C(C(C)C(OC)C(C)C(=O)O)O3)O2)O1 (stereo not drawn) [Monensin], CC(=O)OCC(=O)C1(O)CCC2C3CCC4=CC(=O)CCC4(C)C3C(O)CC21C (stereo not drawn) [Hydrocortisone 21-acetate] is 1.6-fold lower in LC retention time: 13.8 min for the first, 8.8 min for the second.

First: CC1(C)OC2CC3C4CC(F)C5=CC(=O)C=CC5(C)C4C(O)CC3(C)C2(C(=O)CO)O1 (stereo not drawn) [Flunisolide]
Second: CN(C)C1C(=O)C(C(N)=O)=C(O)C2(O)C(=O)C3=C(O)c4c(O)cccc4C(C)(O)C3CC12 (stereo not drawn) [Tetracycline]
The LC retention time of the first is 1.9-fold higher: 9.01 min for the first, 4.7 min for the second.

Compared with O=C1Nc2ccc(Cl)cc2C(c2ccccc2Cl)=NC1O (stereo not drawn) [Lorazepam], NS(=O)(=O)c1cc(C2(O)NC(=O)c3ccccc32)ccc1Cl (stereo not drawn) [Chlorthalidone] is 1.7-fold lower in LC retention time: 8.36 min for the first, 5.06 min for the second.

First: CCOS(=O)(=O)O [Ethyl Sulphate (NH4)]
Second: CCOC(=O)c1ccc(N)cc1 [Benzocaine]
The LC retention time of the first is 4-fold lower: 1.58 min for the first, 6.27 min for the second.

First: CCN(CC)CCOCCOC(=O)C(CC)(CC)c1ccccc1 [Oxeladin]
Second: CCN(CC)CCOC(=O)c1ccc(N)cc1 [Procaine]
The LC retention time of the first is 2.5-fold higher: 8.04 min for the first, 3.21 min for the second.

Nc1nc(=S)c2[nH]cnc2[nH]1 [Thioguanine] and COc1nc(C)nc(Cl)c1NC1=NCCN1 [Moxonidine] are within 1.5-fold of each other in LC retention time: 2.53 min for the first, 3.26 min for the second.

CC(C)CC(N(C)C)C1(c2ccc(Cl)cc2)CCC1 (stereo not drawn) [Sibutramine] and O=C(Nc1ccccc1)N(Cc1ccc(Cl)cc1)C1CCCC1 [Pencycuron] are within 1.5-fold of each other in LC retention time: 8.66 min for the first, 11.4 min for the second.

COP(=S)(OC)Oc1ccc(SC)c(C)c1 [Fenthion] and COP(=S)(OC)Oc1ccc([N+](=O)[O-])c(C)c1 [Fenitrothion] are within 1.5-fold of each other in LC retention time: 11 min for the first, 9.92 min for the second.

Going from O=C(OC1CN2CCC1CC2)N1CCc2ccccc2C1c1ccccc1 (stereo not drawn) [Solifenacin] to c1ccc(C2CN3CCSC3=N2)cc1 (stereo not drawn) [Levamisol], the LC retention time falls from 7.95 min to 3.68 min (2.2-fold).

CON=C(C(=O)OC)c1ccccc1CON=C(C)c1cccc(C(F)(F)F)c1 [Trifloxystrobin] and Cn1cc(-c2ccccc2)c(=O)c(-c2cccc(C(F)(F)F)c2)c1 [Fluridone] are within 1.5-fold of each other in LC retention time: 11.6 min for the first, 8.82 min for the second.

First: CC(=O)Nc1ccc(S(=O)(=O)Nc2ncccn2)cc1 [Sulfadiazine-N4-Acetyl]
Second: CCC1=C(C)CN(C(=O)NCCc2ccc(S(=O)(=O)NC(=O)NC3CCC(C)CC3)cc2)C1=O (stereo not drawn) [Glimepiride]
The LC retention time of the first is 2.6-fold lower: 4.11 min for the first, 10.7 min for the second.

CCOc1cc(C(C)(C)C)ccc1C1COC(c2c(F)cccc2F)=N1 (stereo not drawn) [Etoxazole] and CCc1cccc(C)c1N(C(=O)CCl)C(C)COC (stereo not drawn) [Metolachlor] are within 1.5-fold of each other in LC retention time: 12.8 min for the first, 10.3 min for the second.

CCCCCCCCCCCC(=O)NCCC[N+](C)(C)CC(=O)O [Lauramidopropylbetaine] and CCC=CCC1=C(C)C(OC(=O)C2C(C=C(C)C(=O)OC)C2(C)C)CC1=O (stereo not drawn) [Pyrethrins: Jasmolin II] are within 1.5-fold of each other in LC retention time: 13.1 min for the first, 12.2 min for the second.

O=C(O)C1=CC=C2N=NN=C2C1 [Benzotriazole-5-carboxylic acid] and COC(C)C(O)(C(=O)OCC1=CCN2CCC(O)C12)C(C)C (stereo not drawn) [Heliotrine] are within 1.5-fold of each other in LC retention time: 3.81 min for the first, 4.27 min for the second.

Cc1nnc2n1-c1sc(Br)cc1C(c1ccccc1Cl)=NC2 [Brotizolam] and CCCc1nn(C)c2c(=S)nc(-c3cc(S(=O)(=O)N4CCN(CCO)CC4)ccc3OCC)[nH]c12 [Sildenafil-Hydroxythiohomo] are within 1.5-fold of each other in LC retention time: 8.28 min for the first, 10.5 min for the second.

CCNc1nc(Cl)nc(N(CC)CC)n1 [Trietazine] and CCOP(=S)(OCC)Oc1ccc(S(C)=O)cc1 (stereo not drawn) [Fensulfothion] are within 1.5-fold of each other in LC retention time: 10.2 min for the first, 8.27 min for the second.

O=C(NCC1CN(c2ccc(N3CCOCC3=O)cc2)C(=O)O1)c1ccc(Cl)s1 (stereo not drawn) [Rivaroxaban] showed an LC retention time of 7.03 min.

Source: the RepoRT retention time repository (doi:10.1021/acs.analchem.2c02893)
